Experimental data as given in US9901553B2, “Method of modulating the activity of a nucleic acid molecule” (DUKE UNIVERSITY, priority 2007, dated 2018).
Entries after “also recorded” stand apart in the source; their conditions may differ. Positions of bridges follow the written chain, without caps; N, C: chain ends. Non-standard residues stand in square brackets, D forms with d. Residues, ends and D or L forms follow the SMILES beside them. [invdT] = inverted (3'-3') thymidine; hArg = N=C(N)NCCCC[C@H](N)C(=O)O; Mpa = O=C(O)CCS

What was measured:
human factor IXa = human factor IXa (Homo sapiens, UniProt P00740); assay: APTT clotting assay: anticoagulant activity of factor IXa aptamer; conditions: FIG. 5B
Sequence of human factor IXa (P00740 227-461 limits assumed): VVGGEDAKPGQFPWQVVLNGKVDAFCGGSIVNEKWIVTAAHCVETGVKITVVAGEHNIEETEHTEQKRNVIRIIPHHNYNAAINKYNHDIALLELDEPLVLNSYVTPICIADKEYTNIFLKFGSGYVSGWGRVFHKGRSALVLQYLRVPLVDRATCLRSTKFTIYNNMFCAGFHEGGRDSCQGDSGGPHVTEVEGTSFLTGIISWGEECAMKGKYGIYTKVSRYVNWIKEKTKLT
Sequence of human factor IXa (P00740 47-191 limits assumed): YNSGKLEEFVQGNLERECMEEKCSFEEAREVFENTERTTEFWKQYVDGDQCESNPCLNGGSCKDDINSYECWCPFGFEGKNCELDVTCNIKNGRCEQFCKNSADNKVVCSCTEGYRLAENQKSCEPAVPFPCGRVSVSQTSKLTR

human plasma = assay: APTT clotting time with antidote alone (no aptamer); format: biochemical
Aptamer Ch-9.3t = assay: Isothermal titration calorimetry (Example V, Table 3); format: binding; conditions: ITC, 298K, PBS
aptamer 9.3t [1] = assay: Isothermal titration calorimetry, two-sites binding model (Table 5); conditions: for K1: first stage binding; for affinity for aptamer 9.3t (in words): two-site model
aptamer 9.3t [2] = assay: APTT clotting assay: antidote reversal of factor IXa aptamer in human plasma; conditions: for reversal of factor IXa aptamer (9.3t / Ch-9.3t) anticoagulant activity: antidote 2.5 μg (per 160 μl), human plasma
[3] = in vivo; cited from earlier work
aptamers 9.3t and 11F7T = assay: APTT clotting assay: reversal of both aptamers simultaneously; format: biochemical, human; conditions: protamine 2.5 μg per 160 μl
Procedure: All reactions were performed in triplicate.

[4] = tested on: Factor IXa aptamer (Ch-9.3t); assay: Swine systemic anticoagulation, ACT: antidote reversal; format: in vivo; conditions: protamine 10 mg/kg; for reversal of aptamer anticoagulation (ACT): 30 minutes post aptamer
[5] = in vivo; cited from earlier work; remark: listed apart in the source
aptamer 11F7T = assay: APTT clotting assay: antidote reversal of factor Xa aptamer in human plasma; conditions: for reversal of factor Xa aptamer (11F7T) anticoagulant activity: antidote 2.5 μg (per 160 μl), human plasma
[6] = in vivo; cited from earlier work; remark: listed apart in the source
VWF = biological target: T1, VWF (Homo sapiens, UniProt P04275); assay: PFA-100 platelet function assay: antiplatelet activity of VWF aptamers; format: cell-based; conditions: whole blood
T1 construct: from tissue; host or cells: normal human whole blood
T1 sequence (P04275 23-2813): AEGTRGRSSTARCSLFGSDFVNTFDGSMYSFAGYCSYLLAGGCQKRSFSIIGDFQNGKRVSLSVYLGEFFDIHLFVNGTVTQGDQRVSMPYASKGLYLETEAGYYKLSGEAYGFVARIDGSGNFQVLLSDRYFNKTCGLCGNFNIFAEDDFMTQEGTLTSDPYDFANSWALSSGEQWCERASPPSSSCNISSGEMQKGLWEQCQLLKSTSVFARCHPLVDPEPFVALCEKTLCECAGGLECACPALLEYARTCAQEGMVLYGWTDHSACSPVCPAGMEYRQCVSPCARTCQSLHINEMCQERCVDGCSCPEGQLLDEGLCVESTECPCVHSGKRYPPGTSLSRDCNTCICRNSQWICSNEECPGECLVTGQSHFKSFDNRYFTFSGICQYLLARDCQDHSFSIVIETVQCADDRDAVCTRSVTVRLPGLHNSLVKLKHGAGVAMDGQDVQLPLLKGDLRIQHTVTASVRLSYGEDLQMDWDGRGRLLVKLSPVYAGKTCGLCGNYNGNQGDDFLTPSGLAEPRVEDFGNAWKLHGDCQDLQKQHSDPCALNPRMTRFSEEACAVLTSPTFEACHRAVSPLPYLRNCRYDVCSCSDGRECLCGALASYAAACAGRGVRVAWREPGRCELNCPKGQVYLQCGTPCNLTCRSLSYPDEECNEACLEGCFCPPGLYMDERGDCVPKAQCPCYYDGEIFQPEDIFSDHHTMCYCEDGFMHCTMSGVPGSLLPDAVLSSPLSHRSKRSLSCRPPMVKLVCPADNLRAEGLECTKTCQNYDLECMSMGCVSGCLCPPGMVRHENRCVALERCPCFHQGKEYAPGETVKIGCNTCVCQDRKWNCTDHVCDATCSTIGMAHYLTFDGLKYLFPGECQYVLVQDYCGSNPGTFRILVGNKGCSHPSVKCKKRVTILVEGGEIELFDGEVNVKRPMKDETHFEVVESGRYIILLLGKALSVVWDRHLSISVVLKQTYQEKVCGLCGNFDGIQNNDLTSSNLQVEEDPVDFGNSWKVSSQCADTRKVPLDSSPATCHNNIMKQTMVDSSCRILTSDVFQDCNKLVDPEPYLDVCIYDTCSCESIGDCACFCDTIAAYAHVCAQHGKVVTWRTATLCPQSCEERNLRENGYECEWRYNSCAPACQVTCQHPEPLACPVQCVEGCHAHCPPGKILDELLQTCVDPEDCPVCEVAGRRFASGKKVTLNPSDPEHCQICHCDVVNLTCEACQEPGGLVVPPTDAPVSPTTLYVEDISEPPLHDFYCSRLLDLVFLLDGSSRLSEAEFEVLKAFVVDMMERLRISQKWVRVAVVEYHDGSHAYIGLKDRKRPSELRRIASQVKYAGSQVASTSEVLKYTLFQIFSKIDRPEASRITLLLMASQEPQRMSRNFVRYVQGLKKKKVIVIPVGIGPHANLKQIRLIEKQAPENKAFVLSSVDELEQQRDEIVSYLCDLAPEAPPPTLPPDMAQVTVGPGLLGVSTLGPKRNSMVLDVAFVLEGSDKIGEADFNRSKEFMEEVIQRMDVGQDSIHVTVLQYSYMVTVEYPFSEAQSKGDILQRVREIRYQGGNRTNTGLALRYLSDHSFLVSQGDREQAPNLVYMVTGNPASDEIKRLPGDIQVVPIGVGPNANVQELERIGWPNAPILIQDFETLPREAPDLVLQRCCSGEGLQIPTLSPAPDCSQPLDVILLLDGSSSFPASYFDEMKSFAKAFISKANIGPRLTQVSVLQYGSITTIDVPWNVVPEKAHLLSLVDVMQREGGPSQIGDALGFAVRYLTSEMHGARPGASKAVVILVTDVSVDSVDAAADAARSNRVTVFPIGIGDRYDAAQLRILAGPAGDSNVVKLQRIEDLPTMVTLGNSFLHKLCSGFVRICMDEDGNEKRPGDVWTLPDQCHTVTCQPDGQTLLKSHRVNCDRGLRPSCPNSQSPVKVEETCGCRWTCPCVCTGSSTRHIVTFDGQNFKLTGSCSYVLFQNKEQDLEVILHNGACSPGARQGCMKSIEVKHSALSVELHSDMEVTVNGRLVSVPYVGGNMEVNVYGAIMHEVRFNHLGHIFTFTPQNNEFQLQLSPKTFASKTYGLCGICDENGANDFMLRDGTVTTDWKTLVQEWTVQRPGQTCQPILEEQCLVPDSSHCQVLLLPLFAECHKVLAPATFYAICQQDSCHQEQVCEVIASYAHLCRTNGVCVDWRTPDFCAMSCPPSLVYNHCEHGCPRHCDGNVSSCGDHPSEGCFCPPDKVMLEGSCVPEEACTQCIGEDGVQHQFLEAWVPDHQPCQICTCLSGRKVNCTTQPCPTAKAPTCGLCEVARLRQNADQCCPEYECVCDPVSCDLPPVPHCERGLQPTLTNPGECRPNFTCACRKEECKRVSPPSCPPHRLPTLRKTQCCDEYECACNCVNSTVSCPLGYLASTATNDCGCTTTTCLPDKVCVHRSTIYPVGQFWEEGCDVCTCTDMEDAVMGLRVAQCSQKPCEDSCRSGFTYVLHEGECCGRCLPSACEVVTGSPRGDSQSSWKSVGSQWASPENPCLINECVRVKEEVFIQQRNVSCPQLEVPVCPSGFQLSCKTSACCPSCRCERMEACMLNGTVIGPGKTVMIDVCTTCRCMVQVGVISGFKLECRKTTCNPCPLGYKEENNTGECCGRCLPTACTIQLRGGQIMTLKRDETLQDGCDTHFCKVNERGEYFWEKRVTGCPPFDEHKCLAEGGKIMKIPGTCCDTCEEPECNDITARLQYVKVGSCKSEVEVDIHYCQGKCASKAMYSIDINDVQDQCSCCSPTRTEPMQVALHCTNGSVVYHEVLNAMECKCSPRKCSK
Procedure: The Platelet Function Analyzer, PFA-100 (Dade Behring, Deerfield, Ill.), measures platelet function in terms of clot formation time. In this assay, collagen/ADP cartridges were used to activate the platelets. 800 μl of whole blood was mixed with aptamer in platelet binding buffer (40 μl) (150 mM NaCl; 20 mM Hepes pH:7.4; 5 mM KCl; 1 mM MgCl2 and 1 mM CaCl2) and incubated for 5 min at room temperature. Antidote molecule or platelet buffer (40 μl) was than added and incubated for 5 min at room temperature. This mixture was then added to a collagen/ADP cartridge and tested for its closing time (Harrison, Blood Rev. 19:111 (2005)). The maximum closing time of the PFA-100 is 300 seconds. Data is shown as the change in closing time. All reactions were performed in triplicate.

[7] = 9.3t-Bi 150 nM + antidote 2.5 ug/well
[8] = protamine 2.5 μg, aptamer 150 nM

## 9.3t: factor IXa aptamer, 37 nt 2′fluoropyrimidine modified ssRNA, no carrier (SEQ ID NO: 1) (AUGGGGACUAUACCGCGUAAUGCUGCCUCCCCAUU; 2'-fluoro at CU, RNA at AG, 3' [invdT], backbone not given here)
Human factor IXa
  anticoagulant activity (in words): potent anticoagulant

## NCCCNCCCCNCCCN [Spermine]
Human plasma; antidote 1.3 ug/well
  APTT clotting time: 63.8 s
Aptamer Ch-9.3t
  Binding constant: 8800 M⁻¹
  affinity with aptamer 9.3t (in words): No significant binding
Aptamer 9.3t [1]
  K1: 1.63e+06 M⁻¹
  affinity for aptamer 9.3t (in words): orders of magnitude lower
Aptamer 9.3t [1]; second stage binding
  K2: 126000 M⁻¹
Aptamer 9.3t [2]; 9.3t-Bi 150 nM + antidote 1.3 ug/well
  APTT clotting time: 72.7 s
Aptamer 9.3t [2]; 9.3t-Bi 150 nM, antidote 1.3 ug/well-10 ug/well
  Comments: reversal over antidote range: Did not work b/w 1.3 ug/well-10 ug/well

## N=C(N)NCCCC[C@@H]1NC(=O)CCSSC[C@@H](C(N)=O)NC(=O)[C@@H]2CCCN2C(=O)[C@H](Cc2c[nH]c3ccccc23)NC(=O)[C@H](CC(=O)O)NC(=O)CNC1=O [eptifibatide] ([Mpa][hArg]GDWPC-NH2; disulfide 1-7)
[3]
  time for clearance of the compound: 2 to 4 h

## NCCCCNCCCN [spermidine, Spermidine]
Aptamer Ch-9.3t
  affinity with aptamer 9.3t (in words): No significant binding

## Protamine
Aptamers 9.3t and 11F7T
  duration of simultaneous reversal: maintained for at least an hour
  reversal of both aptamers' activity simultaneously: reverses
Aptamers 9.3t and 11F7T; listed as protamine
  reversal of both aptamers' activity simultaneously: reverse the anticoagulant activity of the two aptamers simultaneously
Human plasma; antidote 2.5 ug/well
  APTT clotting time: 24 s
Aptamer 9.3t [1]
  K1: 3.09e+07 M⁻¹
  affinity for aptamer 9.3t (in words): significant and similar affinities
[4]
  time to return of ACT to baseline / reversal: within five minutes
  reversal of aptamer anticoagulation (ACT): reverses
[4]; listed as protamine
  reversal of aptamer anticoagulation (ACT): total reversal; also recorded: complete reversal
[4]; Example IV
  duration of reversal: at least one hour
[4]; Example VI
  duration of reversal (remainder of the experiment): 60 min
[5]
  side effects of administration: associated with several side effects
Aptamer 11F7T; aptamer 250 nM
  reversal of factor Xa aptamer (11F7T) anticoagulant activity: reverses
Aptamer 11F7T; aptamer 250 nM, listed as protamine
  reversal of factor Xa aptamer (11F7T) anticoagulant activity: totally reverse
Aptamer 11F7T; protamine
  duration of reversal in vitro (APTT): at least 60 minutes
Aptamer 11F7T; protamine 2.5 μg, aptamer 250 nM
  time after protamine administration to total reversal: ≤ 5 min
Aptamer 9.3t [2]; 2.5 μg protamine, both aptamers 9.3t and 11F7T, lower
  protamine concentration for total reversal relative to that routinely used to reverse heparin's anticoagulant activity: 2 fold
Aptamer 9.3t [2]; [7]
  APTT clotting time: 30.3 s
  Reversal: Yes
Aptamer 9.3t [2]; aptamer 150 nM
  reversal of factor IXa aptamer (9.3t / Ch-9.3t) anticoagulant activity: reverses
Aptamer 9.3t [2]; aptamer 150 nM, listed as protamine
  reversal of factor IXa aptamer (9.3t / Ch-9.3t) anticoagulant activity: returned the clotting time to normal; also recorded: totally reverse
Aptamer 9.3t [2]; protamine
  duration of reversal in vitro (APTT): at least 60 minutes
Aptamer 9.3t [2]; [8]
  duration of reversal: maintained for at least an hour
  time after protamine addition to return of clotting time to normal: ≤ 5 min

## β-cyclodextrin-containing polycation (imidazole-containing variant) [CDP-Im]
[6]
  safety profile: favorable safety profile

B1: VWF aptamer 9.3: Von Willebrand factor aptamer (SEQ ID NO: 5) (nucleic acid)
chain: GGGAGGACGAUGCGGAUCGCGCUCUCCUGCUUAAGCAGCUAUCAAAUAGCCCACUCAGACGACUCGCUGAGGAUCCGAGA
modifications: listed as RNA, chemistry not given here
VWF
  inhibition of platelet function: can inhibit platelet function

B2: VWF aptamer 9.14: Von Willebrand factor aptamer (SEQ ID NO: 3) (nucleic acid)
chain: GGGAGGACGAUGCGGUGGACGAACUGCCCUCAGCUACUUUCAUGUUGCUGACGCACAGACGACUCGCUGAGGAUCCGAGA
modifications: listed as RNA, chemistry not given here
VWF
  inhibition of platelet function: can inhibit platelet function
